Assay [1] deals with T1, Prostaglandin G/H synthase 2 (Homo sapiens, UniProt P35354).
T1 sequence (P35354 whole entry): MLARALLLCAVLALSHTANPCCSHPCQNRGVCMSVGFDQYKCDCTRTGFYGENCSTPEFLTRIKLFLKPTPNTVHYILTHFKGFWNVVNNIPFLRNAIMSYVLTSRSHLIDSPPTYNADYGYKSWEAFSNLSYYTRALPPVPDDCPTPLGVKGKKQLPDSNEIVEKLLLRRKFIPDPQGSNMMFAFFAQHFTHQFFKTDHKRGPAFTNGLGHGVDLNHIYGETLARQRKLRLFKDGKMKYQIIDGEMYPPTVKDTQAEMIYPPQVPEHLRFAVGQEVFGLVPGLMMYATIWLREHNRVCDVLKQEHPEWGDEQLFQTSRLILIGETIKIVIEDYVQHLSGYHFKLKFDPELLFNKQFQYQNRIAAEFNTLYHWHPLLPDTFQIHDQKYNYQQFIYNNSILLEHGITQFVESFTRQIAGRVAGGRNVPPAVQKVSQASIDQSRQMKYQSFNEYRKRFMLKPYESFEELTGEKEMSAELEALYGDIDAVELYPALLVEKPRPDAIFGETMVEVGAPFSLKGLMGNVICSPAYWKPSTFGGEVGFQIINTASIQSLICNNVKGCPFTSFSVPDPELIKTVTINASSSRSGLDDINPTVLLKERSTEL
In words: Inhibition of Homo sapiens (human) cyclooxygenase-2.

The target in assay [2] is T2, Prostaglandin G/H synthase 1 (Homo sapiens, UniProt P23219). In words: Inhibition of COX-1 (unknown origin).
T2 sequence (P23219 whole entry): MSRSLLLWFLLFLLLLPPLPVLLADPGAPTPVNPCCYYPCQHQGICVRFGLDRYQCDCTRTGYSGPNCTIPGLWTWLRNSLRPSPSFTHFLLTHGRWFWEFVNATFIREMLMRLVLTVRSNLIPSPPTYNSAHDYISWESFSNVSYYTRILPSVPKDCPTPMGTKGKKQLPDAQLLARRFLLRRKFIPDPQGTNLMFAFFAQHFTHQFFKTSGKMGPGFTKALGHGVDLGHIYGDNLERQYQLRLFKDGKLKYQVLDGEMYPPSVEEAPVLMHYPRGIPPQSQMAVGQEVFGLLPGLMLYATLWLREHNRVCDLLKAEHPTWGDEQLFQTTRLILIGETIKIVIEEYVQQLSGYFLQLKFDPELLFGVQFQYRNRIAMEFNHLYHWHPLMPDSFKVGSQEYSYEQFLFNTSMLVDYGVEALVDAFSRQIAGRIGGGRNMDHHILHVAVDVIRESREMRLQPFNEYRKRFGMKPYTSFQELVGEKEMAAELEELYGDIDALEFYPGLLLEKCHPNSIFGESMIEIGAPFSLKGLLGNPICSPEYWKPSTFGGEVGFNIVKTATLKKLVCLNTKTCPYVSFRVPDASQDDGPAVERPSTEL
The target of assay [3] is T2, Prostaglandin G/H synthase 1. The experiment in a line: Inhibition of cyclooxygenase-1 in Homo sapiens (human) whole blood assessed as thromboxane B2 production at 100 uM after 1 hr by enzyme immunoassay.
Assay [4] addresses T3, Prostaglandin G/H synthase 2 (Homo sapiens) (UniProt P35354).
T3 sequence (whole entry): T1 sequence (P35354 whole entry)
In words: Inhibition of cyclooxygenase-2 in Homo sapiens (human) whole blood assessed as LPS-induced PGE2 production at 100 uM incubated 15 min prior to LPS challenge measured after 24 hr by enzyme immunoassay.

For assay [5], the target named is T2, Prostaglandin G/H synthase 1. The experiment in a line: Inhibition of cyclooxygenase-1 in Homo sapiens (human) whole blood assessed as thromboxane B2 production at 10 uM after 1 hr by enzyme immunoassay.
The target in assay [6] is T3, Prostaglandin G/H synthase 2 (Homo sapiens). The experiment in a line: Inhibition of cyclooxygenase-2 in Homo sapiens (human) whole blood assessed as LPS-induced PGE2 production at 10 uM incubated 15 min prior to LPS challenge measured after 24 hr by enzyme immunoassay.

pIC50: −log10 of the molar value. Activity calls are given as the source filed them. The calls are words filed in the database; no cut-off is given here.

Drawing on ChEMBL document CHEMBL3044614, “Synthesis and pharmacological evaluation of m-terphenyl amines as cyclooxygenase inhibitors” (Med Chem Res, 2007), this text covers IC50 and inhibition for 11 molecules.

In general, pIC50 refers to the IC50 on a negative log10 scale, so that one unit is a factor of ten. For the molecule `Cc1c(CC(=O)O)cc(-c2ccccc2)cc1-c1ccccc1`, the values for the pIC50 in assay [1] and in assay [2] were 3.92 and 4.77, respectively.
The inhibition is the change of the read-out against control, counted positive when it falls. Regarding `Cc1ccc(-c2cc(N)cc(-c3ccc(C)cc3)c2)cc1`, the inhibition in assay [3] is 87%; in assay [4], 86%; in assay [5], 27%; in assay [6] it was 57%.
For `COc1ccc(-c2cc(N)cc(-c3ccccc3)c2)cc1` the same measures were 92%, 78%, “inactive” and “inactive”.
For `CCOc1ccc(-c2cc(N)cc(-c3ccccc3)c2)cc1` the same measures were 88%, “inactive”, 20% and “inactive”.
With `CCOc1ccc(-c2cc(N)cc(-c3ccc(OCC)cc3)c2)cc1`, the inhibition result in assay [3], in assay [4], in assay [5] and in assay [6] was “inactive” in each case.
Take `Nc1cc(-c2ccc(Cl)cc2)cc(-c2ccc(Cl)cc2)c1`: the inhibition in assay [3] turned out to be 93%; in assay [4], 99%; in assay [5], 19%; in assay [6], 76%.
For `Nc1cc(-c2ccccc2)cc(-c2ccc(Cl)cc2)c1` the same measures were 97%, 98%, 63% and 85%.
For `Cc1ccc(-c2cc(N)cc(-c3ccccc3)c2)cc1`, in that order: 96%, 95%, 46% and 49%.
For `CSc1ccc(-c2cc(N)cc(-c3ccccc3)c2)cc1`, in that order: 92%, “inactive”, 29% and “inactive”.
As for `Nc1cc(-c2ccccc2)cc(-c2ccccc2)c1`, the inhibition in assay [3] turned out to be 98%; in assay [4], 92%; in assay [5], 56%; in assay [6] it was 68%.
For `CS(=O)(=O)c1ccc(-c2cc(N)cc(-c3ccccc3)c2)cc1` the same measures were 85%, “inactive”, 23% and “inactive”.
